Reference: patent US9884063B2, “Amido-substituted azole compounds” (Bayer Pharma Aktiengesellschaft, priority 2014, dated 2018)
pIC50: −log10 of the molar value.

Target: T1, TNKS1 (Homo sapiens, UniProt O95271)
T1 sequence (O95271 1-1327): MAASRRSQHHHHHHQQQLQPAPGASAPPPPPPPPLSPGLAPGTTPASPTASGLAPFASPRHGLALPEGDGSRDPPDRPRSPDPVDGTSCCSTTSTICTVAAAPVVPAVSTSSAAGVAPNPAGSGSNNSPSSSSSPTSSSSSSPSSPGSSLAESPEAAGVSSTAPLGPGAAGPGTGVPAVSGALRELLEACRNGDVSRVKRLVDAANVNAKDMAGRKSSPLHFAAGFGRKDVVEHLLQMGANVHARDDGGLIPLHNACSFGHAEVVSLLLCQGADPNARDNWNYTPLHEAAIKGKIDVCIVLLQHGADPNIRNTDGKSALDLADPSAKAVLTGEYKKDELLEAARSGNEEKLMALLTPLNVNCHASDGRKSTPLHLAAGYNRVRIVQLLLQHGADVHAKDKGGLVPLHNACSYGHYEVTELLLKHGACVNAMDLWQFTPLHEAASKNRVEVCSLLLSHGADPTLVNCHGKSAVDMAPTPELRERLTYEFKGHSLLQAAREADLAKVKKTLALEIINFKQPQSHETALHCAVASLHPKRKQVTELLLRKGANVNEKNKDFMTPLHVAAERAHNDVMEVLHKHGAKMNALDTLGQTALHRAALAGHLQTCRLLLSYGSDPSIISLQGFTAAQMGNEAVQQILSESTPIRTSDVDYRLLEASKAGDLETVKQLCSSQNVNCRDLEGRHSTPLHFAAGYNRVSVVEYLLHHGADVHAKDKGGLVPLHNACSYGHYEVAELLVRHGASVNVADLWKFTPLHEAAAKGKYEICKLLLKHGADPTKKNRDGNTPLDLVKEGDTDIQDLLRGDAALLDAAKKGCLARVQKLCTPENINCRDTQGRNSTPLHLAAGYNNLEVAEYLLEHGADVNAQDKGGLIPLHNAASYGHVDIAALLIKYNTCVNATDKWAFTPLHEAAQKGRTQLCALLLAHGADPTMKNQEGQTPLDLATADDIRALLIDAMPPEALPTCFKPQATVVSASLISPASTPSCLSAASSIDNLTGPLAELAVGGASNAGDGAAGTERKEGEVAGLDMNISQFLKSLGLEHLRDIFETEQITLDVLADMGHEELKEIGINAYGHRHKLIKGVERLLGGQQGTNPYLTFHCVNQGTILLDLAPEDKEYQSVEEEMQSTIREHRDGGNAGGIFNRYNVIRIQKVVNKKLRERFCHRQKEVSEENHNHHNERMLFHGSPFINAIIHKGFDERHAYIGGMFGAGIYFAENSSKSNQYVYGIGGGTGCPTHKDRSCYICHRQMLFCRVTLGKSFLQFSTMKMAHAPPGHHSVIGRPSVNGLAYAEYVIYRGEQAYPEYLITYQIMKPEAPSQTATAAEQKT
Experiment: Modified TNKS1 Assay 2 (auto-parsylation, [3H]-NAD+ SPA)
Type: biochemical
Settings: 6 nM TNKS1, 96 well

Structure (SMILES) | pIC50
COC(=O)c1nc[nH]c1C(=O)Nc1ccc(NC(=O)c2ccc(F)cc2)c(OC)c1 [Example 102, methyl 5-({4-[(4-fluorobenzoyl)amino]-3-methoxyphenyl}carbamoyl)-1H-imidazole-4-carboxylate] | < 5.00
Cc1cc(NC(=O)c2[nH]cnc2C(=O)NCCN2CCCCC2)ccc1NC(=O)c1ccccc1Cl [Example 89, N^5-{4-[(2-chlorobenzoyl)amino]-3-methylphenyl}-N^4-[2-(piperidin-1-yl)ethyl]-1H-imidazole-4,5-dicarboxamide] | 7.52
CNC(=O)c1nc[nH]c1C(=O)Nc1ccc(NC(=O)c2ccc(F)cc2Cl)c(OC)c1 [Example 95, N^5-{4-[(2-chloro-4-fluorobenzoyl)amino]-3-methoxyphenyl}-N^4-methyl-1H-imidazole-4,5-dicarboxamide] | 7.10
COc1cc(NC(=O)c2[nH]cnc2C(=O)NCCN(C)C)ccc1NC(=O)c1ccccc1Cl [Example 100, N^5-{4-[(2-chlorobenzoyl)amino]-3-methoxyphenyl}-N^4-[2-(dimethylamino)ethyl]-1H-imidazole-4,5-dicarboxamide] | 7.30
CNC(=O)c1[nH]c(C(C)C)nc1C(=O)Nc1ccc(NC(=O)c2ccc(F)cc2Cl)cc1 [Example 106, N^4-{4-[(2-chloro-4-fluorobenzoyl)amino]phenyl}-2-isopropyl-N^5-methyl-1H-imidazole-4,5-dicarboxamide] | < 5.00
COc1cc(NC(=O)c2[nH]cnc2C(=O)NCCN2CCCCC2)ccc1NC(=O)c1ccc(F)cc1Cl [Example 97, N^5-{4-[(2-chloro-4-fluorobenzoyl)amino]-3-methoxyphenyl}-N^4-[2-(piperidin-1-yl)ethyl]-1H-imidazole-4,5-dicarboxamide] | 7.22
CN(C)CCNC(=O)c1nc[nH]c1C(=O)Nc1ccc(NC(=O)c2ccccc2Cl)nc1 [Example 113, N^5-{6-[(2-chlorobenzoyl)amino]pyridin-3-yl}-N^4-[2-(dimethylamino)ethyl]-1H-imidazole-4,5-dicarboxamide] | 7.70
CNC(=O)c1nc[nH]c1C(=O)Nc1ccc(NC(=O)c2ccccc2Cl)nc1 [Example 112, N^5-{6-[(2-chlorobenzoyl)amino]pyridin-3-yl}-N^4-methyl-1H-imidazole-4,5-dicarboxamide] | 6.60
COC(=O)c1nc[nH]c1C(=O)Nc1ccc(NC(=O)c2ccc(F)cc2Cl)c(OC)c1 [Example 94, methyl 5-({4-[(2-chloro-4-fluorobenzoyl)amino]-3-methoxyphenyl}carbamoyl)-1H-imidazole-4-carboxylate] | 6.36
COc1cc(NC(=O)c2[nH]cnc2C(=O)NCCN(C)C)ccc1NC(=O)c1ccc(F)cc1Cl [Example 96, N^5-{4-[(2-chloro-4-fluorobenzoyl)amino]-3-methoxyphenyl}-N^4-[2-(dimethylamino)ethyl]-1H-imidazole-4,5-dicarboxamide] | 7.52
COC(=O)c1nc[nH]c1C(=O)Nc1ccc(NC(=O)c2ccccc2Cl)c(OC)c1 [Example 98, methyl 5-({4-[(2-chlorobenzoyl)amino]-3-methoxyphenyl}carbamoyl)-1H-imidazole-4-carboxylate] | 6.47
COC(=O)c1nc[nH]c1C(=O)Nc1ccc(NC(=O)c2ccccc2Cl)c(C)c1 [Example 86, methyl-5-({4-[(2-chlorobenzoyl)amino]-3-methylphenyl}carbamoyl)-1H-imidazole-4-carboxylate] | 5.59
